Several values for one entry are separate records, joined by “and”; a condition that tells them apart may be missing. Equal entries are not always repeated.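 Briefly, cells in 96-well plates were exposed to five compound concentrations for 48 h, and endpoints were estimated by linear interpolation. The concentration for 50% growth inhibition is given as GI50. Definition used: TGI = concentration required for complete inhibition of growth.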
Experiments:
Experiment in all cases: NCI tumour cell line growth inhibition, 48 h
DLD-1 colon = test system: DLD-1 colon
DMS 273 small cell lung = test system: DMS 273 small cell lung
LXFL 529 NSCLC = test system: LXFL 529 NSCLC
M19-MEL melanoma = test system: M19-MEL melanoma
SNB-78 CNS = test system: SNB-78 CNS
XF 498 CNS = test system: XF 498 CNS
HOP-18 NSCLC = test system: HOP-18 NSCLC
RXF-631 renal = test system: RXF-631 renal
MDA-N = test system: MDA-N
P388 leukemia = test system: P388 leukemia
P388/ADR leukemia = test system: P388/ADR leukemia
SN12K1 renal = test system: SN12K1 renal

Structure (SMILES) | TGI (DLD-1 colon) | TGI (DMS 273 small cell lung) | TGI (LXFL 529 NSCLC) [µM] | TGI (M19-MEL melanoma) | TGI (SNB-78 CNS) [µM] | TGI (XF 498 CNS) [µM] | TGI (HOP-18 NSCLC) [µM] | TGI (RXF-631 renal) [µM] | TGI (MDA-N) | further results
CC(C)=O.O=C([O-])C(F)(F)F.O=C([O-])C(F)(F)F.O=C([O-])C(F)(F)F.O=C([O-])C(F)(F)F.[Rh+2].[Rh+2] | > 100 µM | > 100 µM | > 100 | > 100 µM | > 100 | > 100 |  |  |  | GI50 (DLD-1 colon): > 100 µM; GI50 (DMS 273 small cell lung): 94.1 µM; GI50 (LXFL 529 NSCLC): 31 µM; GI50 (M19-MEL melanoma): 47.4 µM; GI50 (SNB-78 CNS): 49.4 µM; GI50 (XF 498 CNS): 58 µM
CCO/C(CCn1[nH]c(=O)c(Cl)c(Cl)c1=O)=N\NC(=O)C(=O)NN | > 100 µM | > 100 µM | > 100 | > 100 µM |  | > 100 | > 100 | > 100 |  | 
CCN(CC)CCC(=O)OC1C(C)=CC(C)C(=O)CC(C(C)CC2CCC(O)C(OC)C2)OC(=O)C2CCCCN2C(=O)C(=O)[C@@]2(O)OC(CCC2C)CC(OC)\C(C)=C/C=C/C=C/C(C)CC(C)C(=O)C1OC (stereo partly specified) |  |  |  |  |  |  |  |  | 21.7 µM | 
O=S(=O)(c1ccccc1)c1nccs1 | > 100 µM | > 100 µM | > 100 | > 100 µM | > 100 | > 100 | > 100 |  |  | 
CC(CN1CC(=O)NC(=O)C1)N1CC(=O)NC(=O)C1 (stereo unspecified) | > 750 µM | > 750 µM |  | 745 µM | > 750 | > 690 | > 511 |  | > 750 µM | TGI (P388 leukemia): > 750 µM; TGI (P388/ADR leukemia): > 750 µM; GI50 (SN12K1 renal): 67.1 µM; TGI (SN12K1 renal): > 750 µM
S=c1nc(C(c2ccccc2)c2ccccc2)[nH][nH]1 | > 100 µM | > 100 µM |  | > 100 µM |  | > 100 |  | > 100 |  | 
O=C(N/C(=C\c1c(O)ccc2ccccc12)c1nc2ccccc2[nH]1)c1ccccc1 | > 100 µM | > 100 µM | > 100 | > 100 µM | > 100 | > 100 | > 100 | > 100 |  | 
CN(C)C(=S)/N=c1\ssc(=S)n1Cc1cccs1 | > 100 µM |  | > 100 | > 100 µM | > 100 |  | > 100 |  | 2.85 µM | 
CCOc1cc(C(=O)O)c2c(ccc3ccc(OC)c(OC)c32)c1OC |  |  |  |  |  |  |  |  | > 100 µM | 
O=C(Nc1cc(Cl)ccc1Cl)c1cc2cccc(Br)c2oc1=O | > 100 µM | > 100 µM |  | > 100 µM |  | 72.6 | > 100 |  |  | 
O=c1/c(=C/c2c(O)ccc3ccccc23)sc2nc3ccccc3n12 | > 100 µM | > 100 µM | > 100 | > 100 µM | > 100 | > 100 | > 100 | > 100 |  | 
CC1(C)OC2CC3COC(=O)C3CC2O1 (stereo unspecified) | > 100 µM | > 100 µM | > 100 | > 100 µM | > 100 |  | > 100 | > 100 |  | 
Nc1ncn(C2OC(COP(=O)(O)O)C(O)C2O)c(=O)n1 (stereo unspecified) |  |  |  |  |  |  |  |  | > 100 µM | 
CC(N)Cc1ccc(Cl)cc1 (stereo unspecified) | > 100 µM | > 100 µM | > 100 |  |  | > 100 | > 100 |  |  | 
CSC(=Nc1ccccc1Cl)NC(=O)c1ccc(Br)cc1 | > 100 µM |  | > 100 | > 100 µM | 88.6 | > 100 | 94.1 |  |  | 
COc1cccc2c1C(=O)c1c(O)c3c(c(O)c1C2=O)C[C@@](O)(C(C)=O)C[C@@H]3OC1CC([N+]([O-])(Cc2ccccc2)Cc2ccccc2)C(O)C(C)O1 (stereo partly specified) | 3.22 µM |  | 2.31 | 2.76 µM |  | 2.63 | 3.55 | 2.93 |  | 
COC1(OC)C2(Cl)C(Cl)=C(Cl)C1(Cl)C1c3ccc(C(C)=O)c4cccc(c34)C12 (stereo unspecified) |  | 20.9 µM | > 100 | > 100 µM | > 100 |  | > 100 |  | 86.6 µM | 
Cc1cc(C)nc(NS(=O)(=O)c2ccc(Nc3c4ccccc4nc4c(C(=O)Nc5ccc(S(=O)(=O)Nc6cc(C)on6)cc5)ccc(Cl)c34)cc2)n1 | 33.3 µM |  | 42.4 | > 100 µM | > 100 | 36.2 |  | 64.6 |  | 
O=C(O)C(Br)C(Br)C(=O)O (stereo unspecified) |  |  |  |  |  |  |  |  | > 100 µM | 
O=C1C=C2C=CC3CC2(O1)C1CCCCN31 (stereo unspecified) |  |  |  |  |  |  |  |  | > 100 µM | GI50 (MDA-N): 16.8 µM and 18.8 µM and 36 µM
O=C1NC(=O)[C@@]2(CC[C@@H](O)C2)c2ccncc21 |  |  |  |  |  |  |  |  | > 100 µM | 

Structure (SMILES) | TGI (DLD-1 colon) | TGI (DMS 273 small cell lung) | TGI (LXFL 529 NSCLC) [µM] | TGI (M19-MEL melanoma) | TGI (SNB-78 CNS) [µM] | TGI (XF 498 CNS) [µM] | TGI (HOP-18 NSCLC) [µM] | TGI (RXF-631 renal) [µM] | TGI (MDA-N) | further results
O=C(O)/C=C/c1ccc[c]([Sb](=[O])([OH])[OH])c1 |  |  |  |  |  |  |  |  | > 100 µM | GI50 (MDA-N): > 100 µM
COC1=CC(=O)C(Br)=CC1=O | > 100 µM |  | 31.2 | 32 µM |  | 31.5 |  | 99.2 |  | 
C#CCN(N=O)C(=O)NCCCCC(NC(=O)OCc1ccccc1)C(=O)OCc1ccccc1 (stereo unspecified) | 85.2 µM | > 100 µM | 41.4 | 63 µM | > 100 | 74.1 | > 100 |  |  | 
COC1CC(C)C(OC)c2cc(O)cc(c2O)NC(=O)/C(C)=C/C=C\C(C)C(OC(N)=O)/C(C)=C\C(C)C1OC (stereo unspecified) | 10.5 µM and 11.2 µM | 0.905 µM and 6.33 µM | 7.64 | 15.2 µM and 10.7 µM | 18.3 |  | 16.5 |  | 13.3 µM and 6.75 µM | GI50 (DLD-1 colon): 4.65 µM and 5.28 µM; GI50 (M19-MEL melanoma): 0.498 µM; TGI (P388/ADR leukemia): 18.2 µM
COc1cc2c(c(O)c1C)C(=O)CC(c1ccccc1)O2 (stereo unspecified) | > 100 µM |  | > 100 | > 100 µM | > 100 |  | > 100 | > 100 |  | 
CCN(CCCl)CCCCCNc1c2ccccc2nc2ccc(OC)cc12 | 2.95 µM | 1.78 µM | 1.93 | 2.15 µM | 8.57 | 1.36 |  |  |  | 
O=C(O)C1CCN(Cc2oc(CO)cc(=O)c2O)C1 (stereo unspecified) |  |  |  |  |  |  |  |  | > 100 µM | 
Cn1cnc([N+](=O)[O-])c1Sc1nnnn1C | 29.5 µM | 36.1 µM | 24.4 | 29.9 µM | 30.2 | 30 | 21.5 |  |  | 
CCOP(=O)(OCC)/C(C#N)=C\c1ccsc1 | > 100 µM | > 100 µM | > 100 | > 100 µM | > 100 | > 100 | > 100 |  |  | 
Cc1ccc(NC(=O)C(=O)C(C(=O)c2ccc3ccccc3c2)C2OC(=O)c3ccccc32)c(C)c1 (stereo unspecified) | 26.5 µM |  | 20.4 | 22.6 µM | 72.6 | 10.7 | 29.5 | 20.6 |  | 
O=C1NC(=O)C(=Cc2c3ccccc3cc3ccccc23)C(=O)N1 |  | > 100 µM | > 100 | > 100 µM |  | > 100 | > 100 | > 100 |  | 
O=C1C=CC(=O)C2C1Cc1ccccc1C2c1ccccc1 (stereo unspecified) | > 100 µM | > 100 µM | 31.1 | > 100 µM |  |  | > 100 |  |  | 
Cc1cn(CCC(N)C(=O)O)c(=O)[nH]c1=O (stereo unspecified) |  |  |  |  |  |  |  |  | > 100 µM | 
O=c1nc(NC(c2ccccc2)(c2ccccc2)c2ccccc2)ccn1CCCl | > 100 µM |  | 26.4 | 40.5 µM | 86.7 | 27.1 | 72.1 | 97.4 |  | 
Cc1cc(Br)cc(C)c1NC(=O)C(=O)C(C(=O)c1ccncc1)C1OC(=O)c2ccccc21 (stereo unspecified) | > 100 µM | > 100 µM | > 100 |  | > 100 | > 100 | > 100 | > 100 |  | 
Cc1cc2c(c3nocc13)C(=O)c1ccccc1C2=O | > 100 µM | > 100 µM | > 100 | > 100 µM |  |  | > 100 | > 100 |  | 
NCCOCn1cc(Cc2cccc(OCc3ccccc3)c2)c(=O)[nH]c1=O | > 100 µM | > 100 µM | > 100 |  | > 100 |  | > 100 |  |  | 
O=C1OC(c2ccccc2)(c2ccccc2)c2ccc3ccc(F)cc3c21 | > 100 µM | > 100 µM | > 100 | > 100 µM |  | > 100 |  | > 100 |  | 
O=C1NC(O)c2ccccc2O1 (stereo unspecified) |  |  |  |  |  |  |  |  | > 100 µM | 
CCNc1cc2oc(=O)cc(C(F)(F)F)c2cc1C |  |  |  |  |  |  |  |  | > 100 µM | 
Cc1c(N)nc([C@H](CC(N)=O)NC[C@H](N)C(N)=O)nc1C(=O)N[C@H](C(=O)N[C@H](C)[C@@H](O)CC(=O)N[C@H](C(=O)NC(O[C@@H]1O[C@@H](C)[C@@H](N)[C@@H](O)[C@H]1O)C(O)c1nc(-c2nc(C(=O)NCCCCN)cs2)cs1)[C@@H](C)O)[C@@H](O[C@@H]1O[C@@H](CO)[C@@H](O)[C@H](O)[C@@H]1O[C@H]1O[C@H](CO)[C@@H](O)[C@H](OC(N)=O)[C@@H]1O)c1c[nH]cn1 (stereo partly specified) |  |  |  |  |  |  |  |  | > 50 µM | 
